This is an account of results in patent publication US20240050582A1, “CONJUGATES INCLUDING MULTIPLE SACCHARIDIC CHAINS ON A LINEAR PROTEIN AND USES IN MAMMALS FEED” (UNIVERSITEIT GENT, priority 2021, published 2024).

Series [1] concerns F18+ E. coli. As to the kind of experiment: Blocking assay with fluorescein conjugated A6-1 monomers. Format: binding, Escherichia coli. The conditions noted are these: pre-incubation 1 h; actual A6-1 12 μg/ml (CMCL, CMCM), 120 μg/ml (polylysine); monomeric A6-1 1 mg/ml. How it is done: A blocking assay was developed to understand inhibition. In this assay, F18+E. coli were first incubated for one hour at room temperature with either the carriers or A6-1 conjugates, while gently shaking. Concentrations used were chosen so that the actual A6-1 concentration was 12 μg/ml for A6-1 conjugated carriers CMCM and CMCL (and the similar concentration of non-conjugated carriers) or 120 μg/ml for the A6-1 conjugated carrier polylysine (A6-1-PL-14). […] Subsequently, fluorescein conjugated A6-1 monomers (A6-F) were added (1 mg/ml) for one hour at room temperature. The fluorescing oligosaccharide was labeled at the reducing end of the molecule with fluorescein (also named 6A1-FITC). Next free A6-1-fluorescein was washed away with PBS followed by centrifugation at 2000 g for 5 min and resuspensions of the pellet with PBS. This was repeated twice.
If carriers without A6-1 bind to the bacteria, they will block the binding of A6-F and no fluorescence-bound bacteria can be detected by fluorescence microscopy. If there is no binding of the carrier to the bacteria in the first step of the test, fluorescing bacteria will be seen. […]
As aforementioned, high non-AG based inhibition of most carriers was observed. […] Subsequently, fluorescence conjugated AG-1 monomers (AG-1-F) were added and binding of the fluorescing AG-1 to the bacteria was determined using a fluorescence microscope.

Series [2] deals with F18+ E. coli (strain 107/86). The conditions noted are these: for Average % inhibition: free A6-1 10 mg/ml (positive control); for Conjugate inhibition (M) / M − C (measure of the specific blockage of F18 fimbriae by A6) / Optimal inhibitory dose: A6 supplied via the conjugate / Optimal inhibitory dose: Carrier supplied via the conjugate: Table 9; for Conjugate inhibition (M): A6-1 conjugate of the carrier, at its optimal inhibitory dose; for M − C (measure of the specific blockage of F18 fimbriae by A6): difference conjugate inhibition minus carrier inhibition; for Optimal inhibitory dose: A6 supplied via the conjugate / Optimal inhibitory dose: Carrier supplied via the conjugate: in vitro.

For series [3], the system named is β-hemolytic coliforms. The series is classed as in vivo, pig. The note with it: AGP (50 mg/kg carbadox).
Series [4] has as its system F18 E. coli. As to the kind of experiment: Part E: bacterial translocation in lymph nodes and spleen. The note with it: AGP.
Series [5] has as its system F18ac bacteria 2134P (STa+ STb+). Nature of the series: In vivo small intestinal segment perfusion model (SISP). Details: species or system pig.
In series [6] the test system is F18 E. coli. Format: in vivo, pig. The conditions noted are these: compared with positive control; P<0.05.
The test system of series [7] is F18 E. coli. As to the kind of experiment: Part E: intestinal morphology. The note with it: linear.
[8] abbreviates: d 5 PI, compared with the control, P<0.05.

Like-named read-outs stand apart in the source and are kept apart here. Marks after values point to notes of the source that are not given here.

Turning to `CC(=O)N[C@H]1[C@@H](O[C@H]2[C@@H](O)[C@@H](CO)O[C@@H](O[C@H]3[C@H](O)[C@@H](CO)O[C@@H](O[C@H]4[C@@H](O)[C@@H](CO)O[C@@H](O[C@H]5[C@H](O)[C@@H](O)C(O)O[C@@H]5CO)[C@@H]4O)[C@@H]3NC(C)=O)[C@@H]2O[C@@H]2O[C@@H](C)[C@@H](O)[C@@H](O)[C@@H]2O)O[C@H](CO)[C@H](O)[C@@H]1O` (stereo partly drawn) [A6-1, GalNAcα1-3(Fucα1-2)Galβ1-3GlcNAcβ1-3Galβ1-4Glc, reference compound], in series [1], the “fluorescence of bacteria after A6-1-fluorescein (blocking of A6-F binding)” value is recorded as “completely abolished fluorescence”. The Average % inhibition is 71.3% in series [2] (Table 8-A); 69.5% in series [2] (Table 8-B CMCL type 1); 57.05% in series [2] (Table 8-B CMCL type 2); 63.6% in series [2] (Table 8-C CMCM type 1); 61.26% in series [2] (Table 8-C CMCM type 2).
As for `COC(=O)N/N=C/c1c[n+]([O-])c2ccccc2[n+]1[O-]` [AGP, carbadox], the “percentage of β-hemolytic coliform” value in series [3] (d 2 PI) was 31.56^b %; in series [3] (d 5 PI), 8.79^b %; in series [3] (d 8 PI), 2.77^b %; in series [3] (d 11 PI), 2.10%. The “Bacterial translocation, Lymph node” value is recorded as 147^ab cfu/g in series [4] (d 5 PI) and 279^ab cfu/g in series [4] (d 11 PI). In addition, the “Bacterial translocation, Spleen” value was 47 cfu/g in series [4] (d 5 PI) and 56^b cfu/g in series [4] (d 11 PI).
Take `CNCCCCC(CNCCCCC(N)C(=O)NCCCCC(N)C(C)=O)NCC(O)C(O)C(O[C@@H]1OC(CO)[C@H](O)C(O[C@@H]2OC(CO)[C@@H](O)C(O[C@@H]3OC(CO)[C@H](O)C(O[C@H]4OC(CO)[C@H](O)C(O)C4NC(C)=O)C3O[C@@H]3OC(C)[C@@H](O)C(O)C3O)C2NC(C)=O)C1O)C(O)CO` (stereo partly drawn) [Coligo A6PL]: the “net absorption of perfusion fluid” value in series [5] (2 μg/ml actual A6-1 (A6-1-PL-14), segment number 4) was “+0.03 g/cm^2”; in series [5] (8 μg/ml actual A6-1 (A6-1-PL-14), segment number 5) it was “+0.21 g/cm^2”; in series [5] (32 μg/ml actual A6-1 (number 6) or the same concentration of polylysine (number 8)), 0 g/cm^2. Also, in series [6], the “feed efficiency from d 0 to 5 PI” value is on record as “enhanced”. The “ratio of villi height to crypt depth in jejunum” value in series [7] (setting [8]) is reported as “enhanced”. In series [7] (setting [8]), the “villi height, ratio of villi height to crypt depth, and villi area in ileum” value is recorded as “increased”. Moreover, in series [7] (setting [8]), the “villi height, ratio of villi height to crypt depth, villi width, and villi area in duodenum” value was “dose-dependently increased”. Also, in series [7] (d 11 PI, P<0.10), the “ratio of villi height to crypt depth in jejunum and ileal villi height” value was “tended to increase”.
On to Alginate [reference compound], for which, in series [2], the “Conjugate inhibition (M)” value is reported as 41%, the “M − C (measure of the specific blockage of F18 fimbriae by A6)” value is on record as −15%, the “Optimal inhibitory dose: A6 supplied via the conjugate” value was 0.6 µg/mL and the “Optimal inhibitory dose: Carrier supplied via the conjugate” value amounted to 0.081 mg/mL.
On the same counts, the results for Pectin [reference compound] are 64%, −5%, 1.2 µg/mL and 0.25 mg/mL.
